Test results from patent publication EP4588995A1, “IMPROVEMENT OF SOLUBILITY OF CHOLINE CARBOXYLATES IN BASE OILS” (OLEON NV, priority 2024, dated 2025).

Assay: Resistivity of blends according to standard ASTM D1169
Assay type: physicochemical
Method: The resistivity ability of blends was evaluated according to the standard ASTM […].

## CCCCCCCC/C=C\CCCCCCCC(=O)OCC(COC(=O)CCCCCCC/C=C\CCCCCCCC)(COC(=O)CCCCCCC/C=C\CCCCCCCC)COC(=O)CCCCCCC/C=C\CCCCCCCC [Pentaerythritol tetraoleate]
  Resistivity: 12.00 10^10 Ωcm
